Among the data in US8703979B2, “Preparation of anticancer-active tricyclic compounds via alkyne coupling reaction” (Taheebo Japan Co., Ltd., priority 2010, dated 2014) are melting point values, retold here.

As usually defined, the melting point is the temperature, or range, at which the solid turns liquid.

`CC(O)c1cc2c(s1)C(=O)c1cccc(O)c1C2=O` (stereo not shown) [Example 20, 2-(1-hydroxyethyl)-5-hydroxynaphtho[2,3-b]thiophene-4,9-dione]: the melting point was > 193 °C (dec.).
